Assay [1] addresses CLK2 kinase (Homo sapiens, UniProt P49760). The assay is described as follows: CLK2 kinase activity assay (Z-lyte FRET).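 Also: FRET read-out as coumarin to fluorescein emission ratio, unphosphorylated peptide as 0% and phosphorylated peptide as 100% controls, duplicate reactions, non-linear regression fit of dose-response curves.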 The note with it: Z-lyte Ser/Thr 6 peptide, 60 μM ATP, 1 h at room temperature. The assay is classed as biochemical.
Procedure: This is a non-radioactive assay using fluorescence resonance energy transfer (FRET) between coumarin and fluorescein to detect kinase activity which is represented as a ratio of coumarin emission/fluorescein emission.
The mixture was allowed to incubate with the representative compounds for one hour at room temperature. All reactions were performed in duplicate. Unphosphorylated (“0% Control”) and phosphorylated (“100% control”) forms of Ser/Thr 6 served as control reactions. Additionally, an 11-point dose-response curve of Staurosporine (1 μM top) was run to serve as a positive compound control.
After incubation, Development Reagent A was diluted in Development Buffer then added to the reaction and allowed to further incubate for one hour at room temperature.
Dose-response curves were generated and inhibitory concentration (IC50) values were calculated using non-linear regression curve fit in the Dotmatics' Studies Software (Bishops Stortford, UK).
For assay [2], the target named is CLK3 kinase (Homo sapiens, UniProt P49761). The assay is described as follows: CLK3 kinase activity assay (Z-lyte FRET).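 Also: kinase activity read as coumarin/fluorescein emission ratio by FRET, unphosphorylated peptide as 0% and phosphorylated peptide as 100% control, values from non-linear regression of dose-response curves.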 Particulars: Z-lyte Ser/Thr 18 peptide, 156 μM ATP, 1 h at room temperature. It counts as biochemical.
In assay [3] the test system is Wnt pathway activity (SW480 colon carcinoma cells stably expressing the Sp5-Luc reporter). The assay is described as follows: Wnt pathway activity screening assay (Sp5-Luc reporter gene assay). Particulars: Homo sapiens, SW480, Table 4; SW480 cells stably expressing Sp5-Luc reporter, 10-point dose-response from 10 μM, 36 to 48 hours.
In assay [4] the test system is primary human mesenchymal stem cells (hMSCs). The assay is described as follows: Chondrogenesis screening using primary human mesenchymal stem cells. It counts as cell-based. Particulars: Homo sapiens, Mesenchymal stem cells, hMSC chondrogenesis; for EC50: concentration required to induce 50% levels of chondrogenesis with TGF-β3 as positive control, read-out: Conc (nM) of 50% TGF-β3 activity; for Emax: maximum activity relative to TGF-β3 (10 ng/mL) positive control, read-out: Max. Activity as % TGF-β3 activity. From the text: Representative compounds were screened using primary human mesenchymal stem cells (hMSCs) to determine their ability to induce chondrogenesis (process by which cartilage is developed).
Human Mesenchymal Stem Cell Culture: Primary human mesenchymal stem cells (hMSCs) were purchased from Lonza (Walkersville, Md.) and expanded in Mesenchymal Stem Cell Growth Media (Lonza). Cells between passage 3 and 6 were used for the experiments.
Area of nodules in each well was normalized to the average of 3 DMSO treated wells on the same plate using Excel (Microsoft Inc.). The normalized averages (fold change over DMSO) of 2 or 3 replicate wells for each compound concentration were calculated. Due to solubility limitations of some of the compounds, curve fitting was incomplete leading to inaccurate EC50 determinations.
Using TGF-β3 as a positive control, the concentration of representative compounds required to induce 50% levels of chondrogenesis is reported. In addition, the maximum activity of each compound and the respective dose that each compound reached maximum chondrogenesis activity is reported.

CLK2 kinase, sequence (P49760 whole entry): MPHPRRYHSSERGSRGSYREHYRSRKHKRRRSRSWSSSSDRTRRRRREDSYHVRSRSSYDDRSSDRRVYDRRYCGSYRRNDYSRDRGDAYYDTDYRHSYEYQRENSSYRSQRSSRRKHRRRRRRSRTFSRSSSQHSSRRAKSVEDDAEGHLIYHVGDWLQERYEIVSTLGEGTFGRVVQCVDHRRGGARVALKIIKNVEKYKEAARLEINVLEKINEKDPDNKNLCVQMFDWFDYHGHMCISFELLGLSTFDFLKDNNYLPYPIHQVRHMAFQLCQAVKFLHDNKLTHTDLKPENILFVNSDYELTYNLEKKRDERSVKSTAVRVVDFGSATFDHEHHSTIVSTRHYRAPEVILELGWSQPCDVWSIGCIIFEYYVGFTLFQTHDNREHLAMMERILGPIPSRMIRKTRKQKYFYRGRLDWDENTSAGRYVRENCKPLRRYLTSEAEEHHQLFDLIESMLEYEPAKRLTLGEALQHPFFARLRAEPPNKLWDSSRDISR
CLK3 kinase, sequence (P49761 whole entry): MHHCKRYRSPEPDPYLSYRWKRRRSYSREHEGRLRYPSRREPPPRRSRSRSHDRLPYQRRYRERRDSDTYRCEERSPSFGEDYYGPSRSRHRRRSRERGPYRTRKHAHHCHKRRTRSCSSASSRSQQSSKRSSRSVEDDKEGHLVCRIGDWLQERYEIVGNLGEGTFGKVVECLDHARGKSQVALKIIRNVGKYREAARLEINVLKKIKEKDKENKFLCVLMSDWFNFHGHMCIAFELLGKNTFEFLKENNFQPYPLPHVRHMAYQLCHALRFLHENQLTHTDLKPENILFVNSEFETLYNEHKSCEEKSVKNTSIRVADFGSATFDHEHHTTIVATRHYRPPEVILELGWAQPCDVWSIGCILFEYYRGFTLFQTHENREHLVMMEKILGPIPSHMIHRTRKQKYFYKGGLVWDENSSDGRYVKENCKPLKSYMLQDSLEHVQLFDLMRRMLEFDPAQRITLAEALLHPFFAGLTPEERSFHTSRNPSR

Consider `O=C(Nc1ccc2c(c1)OCCO2)c1n[nH]c2ccc(-c3cncc(CN4CCCCC4)c3)cc12` [compound 97], for which the EC50 in assay [1] worked out at 1 nM; in assay [2] it was 60 nM; in assay [3], 125 nM.

Consider `O=C(Nc1cnccc1NC(=O)C1CC1)c1n[nH]c2ccc(-c3cccnc3)cc12` [compound 63], for which the EC50 in assay [1] was 1 nM; in assay [2] it was 343 nM; in assay [3], 68 nM.

For `Cc1cc2[nH]nc(C(=O)Nc3ccc(CN4CCCC4)cc3)c2cc1-c1cccnc1` [compound 60], the EC50 in assay [1] amounted to 2 nM; in assay [2] it was 581 nM; in assay [3], 1090 nM.

Take `O=C(Nc1ccnnc1)c1n[nH]c2ccc(-c3cncc(CN4CCCCC4)c3)cc12` [compound 94]: the figures for the EC50 in assay [1], in assay [2] and in assay [3] were 1 nM, 11 nM and 40 nM, respectively.

As to `O=C(Nc1ccc(-c2ccccc2)nc1)c1n[nH]c2ccc(-c3cncc(CN4CCCCC4)c3)cc12` [compound 93], the EC50 in assay [1] was 5 nM; in assay [2] it was 71 nM; in assay [3] it was 101 nM.

Take `CC(C)Nc1cncc(-c2ccc3cnc(NC(=O)C4CCN(CCF)CC4)cc3c2)n1` [compound 598]: the EC50 was 8 nM in assay [1], 52 nM in assay [2] and 178 nM in assay [3].

As to `CN1CCN(c2ccc(NC(=O)c3n[nH]c4ccc(-c5cncc(NC(=O)C6CC6)c5)cc34)cn2)CC1` [compound 55], the EC50 in assay [1] came to 1 nM; in assay [2], 13 nM; in assay [3], 80 nM.

Turning to `CN(C)C(=O)Nc1cncc(-c2ccc3[nH]nc(C(=O)Nc4cccnc4)c3c2)c1` [compound 54], the EC50 in assay [1] was determined as 1 nM; in assay [2] it was 20 nM; in assay [3], 176 nM.

With `O=C(Nc1ccc(N2CCC(O)CC2)nc1)c1n[nH]c2ccc(-c3cncc(CN4CCCCC4)c3)cc12` [compound 91], the EC50 in assay [1] amounted to 1 nM; in assay [2] it was 22 nM; in assay [3] it was 49 nM.

Turning to `O=C(Nc1cc2cc(-c3cncc(NC4CCNCC4)n3)ccc2cn1)C1CC(F)(F)C1` [compound 600], the EC50 was determined as 3 nM in assay [1], 78 nM in assay [2] and 381 nM in assay [3].

With `O=C(Nc1cccnc1)c1n[nH]c2ccc(-c3cncc(NC(=O)N4CCOCC4)c3)cc12` [compound 56], the EC50 in assay [1] stood at 4 nM; in assay [2], 47 nM; in assay [3], 1250 nM.

Turning to `Cc1n[nH]c2ccc(-c3cncc(NN4CCNCC4)n3)cc12` [compound 41], the figures for the EC50 in assay [1], in assay [2] and in assay [3] were 1 nM, 1420 nM and 256 nM, respectively.

On to `CN(C)CCOc1cncc(-c2cnc3[nH]nc(-c4nc5c(-c6cccc(F)c6)nccc5[nH]4)c3c2)c1` [compound 151], for which the EC50 turned out to be 1 nM in assay [1], 55 nM in assay [2] and 253 nM in assay [3].

Regarding `Nc1cncc(-c2ccc3[nH]nc(-c4cc5c(-c6cccnc6)nccc5[nH]4)c3c2)c1` [compound 347], the EC50 was found to be 2 nM in assay [1], 18 nM in assay [2] and 146 nM in assay [3].

For the compound `c1cc(-c2cncc3[nH]c(-c4n[nH]c5ccc(-c6cncc(CNCC7CCCC7)c6)cc45)nc23)cs1` [compound 250], the EC50 in assay [1] is 4 nM; in assay [4], 100 nM; in assay [3], 58 nM. Moreover, the Emax in assay [4] was found to be 167%.

In the case of `Cc1ncc(NC(=O)c2n[nH]c3ccc(-c4cnc(C)n4C)cc23)s1` [compound 115], the EC50 in assay [1] was determined as 1 nM; in assay [2], 99 nM; in assay [3] it was 335 nM.

As to `Cn1cncc1-c1ccc2cnc(NC(=O)c3ccnc(N4CC(N)C4)c3)cc2c1` [compound 581], the EC50 in assay [1] turned out to be 2 nM; in assay [2], 11 nM.

As to `CN(C)Cc1cncc(NC(=O)c2n[nH]c3ccc(-c4cncc(CN5CCCC5)c4)cc23)c1` [compound 70], the EC50 in assay [1] is 1 nM; in assay [2], 36 nM; in assay [3], 330 nM.

Take `Fc1cccc(-c2cncc3[nH]c(-c4n[nH]cc4C#Cc4cncc(OC5CCNCC5)c4)nc23)c1` [compound 33]: the EC50 in assay [1] amounted to 3 nM; in assay [2], 148 nM; in assay [3], 4640 nM.

Take `CN1CCN(c2ccnc3[nH]c(-c4n[nH]c5ccc(-c6cn[nH]c6)nc45)cc23)CC1` [compound 498]: the EC50 is 3 nM in assay [1], 300 nM in assay [4] and over 10000 nM in assay [3]. Further, in assay [4], the Emax stood at 60.1%.

As to `O=C(Nc1cc2cc(-c3cncc(NCC4(F)CNC4)n3)ncc2cn1)C1CC1` [compound 615], the EC50 in assay [1] stood at 7 nM; in assay [2], 53 nM; in assay [3], 383 nM.

For `Cc1n[nH]c2cc(F)c(-c3cncc(CN4CCCCC4)n3)cc12` [compound 40], the values for the EC50 in assay [1], in assay [2] and in assay [3] were 45 nM, 2380 nM and 2440 nM, respectively.

In the case of `O=C(Nc1cnccn1)c1n[nH]c2ccc(-c3cncc(CN4CCCCC4)c3)cc12` [compound 95], the EC50 stood at 1 nM in assay [1], 46 nM in assay [2] and 289 nM in assay [3].

For the compound `Nc1cncc(-c2cc3c(-c4cc5c(-c6ccccc6F)ccnc5[nH]4)n[nH]c3cn2)c1` [compound 325], the EC50 was 4 nM in assay [1] and over 10000 nM in assay [3]. Moreover, the Emax in assay [4] came to 32.4%.

With `Fc1cccc(-c2cncc3[nH]c(-c4n[nH]c5ccc(-c6cn[nH]c6)nc45)nc23)c1` [compound 154], the EC50 in assay [1] was 3 nM; in assay [4] it was 20.6 nM; in assay [3] it was over 10000 nM. Besides, the Emax in assay [4] was 51.8%.

As to `CN1CCC(n2cc(C(=O)Nc3cc4cc(-c5cnn(C)c5)ccc4cn3)cn2)CC1` [compound 561], the EC50 in assay [1] turned out to be 1 nM; in assay [2] it was 6 nM; in assay [3], 14 nM.

Regarding `COc1cncc(-c2ccc3[nH]nc(-c4nc5c(-c6cccc(F)c6)cncc5[nH]4)c3n2)c1` [compound 149], the results for the EC50 in assay [1], in assay [2] and in assay [4] were 2 nM, 65 nM and 20.6 nM, respectively. For the same compound, the Emax in assay [4] was found to be 55.5%.

Take `CN1CCN(Cc2ccc(NC(=O)c3n[nH]c4ccc(-c5cccnc5)cc34)cn2)CC1` [compound 62]: the EC50 came to 1 nM in assay [1], 34 nM in assay [2] and 37 nM in assay [3].

Consider `CN(C)CCN(C)c1ccc(NC(=O)c2n[nH]c3ccc(-c4cncc(CN5CCCCC5)c4)cc23)cn1` [compound 84], for which the EC50 in assay [1] stood at 1 nM; in assay [2], 14 nM; in assay [3], 65 nM.

On to `O=C(Nc1ccc(OCCN2CCCC2)nc1)c1n[nH]cc1C#Cc1cccnc1` [compound 28], for which the values for the EC50 in assay [1] and in assay [3] were 46 nM and 409 nM, respectively. In addition, the Emax in assay [4] came to 68.8%.

Take `CNC(=O)c1ccc(C(=O)Nc2cc3cc(-c4cn(C)nn4)ccc3cn2)cn1` [compound 577]: the EC50 in assay [1] turned out to be 3 nM; in assay [2], 56 nM.

With `CNc1nc(NCc2ncccn2)c2c(-c3ccc4ncccc4c3)c[nH]c2n1` [compound 624], the EC50 in assay [1] was 10 nM; in assay [2], 26 nM; in assay [3], 73.3 nM.

In the case of `c1cc(-c2ccnc3[nH]c(-c4n[nH]c5ccc(-c6cncc(CNCC7CCCC7)c6)nc45)cc23)ccn1` [compound 396], the EC50 was 12 nM in assay [1], 100 nM in assay [4] and over 10000 nM in assay [3]. Further, the Emax in assay [4] was 67.2%.

For the compound `COc1cncc(-c2ccc3[nH]nc(-c4nc5c(-c6cccc(F)c6)ccnc5[nH]4)c3n2)c1` [compound 150], the values for the EC50 in assay [1] and in assay [2] were 3 nM and 89 nM, respectively. Besides, the Emax in assay [4] was determined as 47%.

On to `Nc1cncc(-c2cnc3[nH]nc(-c4cc5c(-c6ccncc6)ccnc5[nH]4)c3c2)c1` [compound 380], for which the EC50 in assay [1] is 5 nM; in assay [3], over 10000 nM. Moreover, in assay [4], the Emax was determined as 11.9%.

With `CCCC(=O)Nc1cncc(-c2cnc3[nH]nc(-c4cc5c(-c6ccncc6)ccnc5[nH]4)c3c2)c1` [compound 384], the values for the EC50 in assay [2], in assay [4] and in assay [3] were 100 nM, 30 nM and 999 nM, respectively. Also, the Emax in assay [4] worked out at 50.3%.

Turning to `CN1CCN(c2cccc3[nH]c(-c4n[nH]c5ncc(-c6cncc(CN7CCCCC7)c6)cc45)cc23)CC1` [compound 494], the EC50 in assay [1] was 12 nM; in assay [2], 973 nM; in assay [4] it was 300 nM.

As to `CN(C)Cc1cncc(-c2cnc3[nH]nc(-c4nc5c(-c6ccsc6)cccc5[nH]4)c3c2)c1` [compound 251], the EC50 is 67 nM in assay [2], 300 nM in assay [4] and 32 nM in assay [3]. The Emax in assay [4] turned out to be 105%.

On to `Cn1cc(-c2cnc3[nH]nc(-c4cc5cccnc5[nH]4)c3c2)cn1` [compound 454], for which the EC50 was 3 nM in assay [1], 300 nM in assay [4] and over 10000 nM in assay [3]. Moreover, in assay [4], the Emax was 51.7%.

The values are drawn from patent publication US20230000842A1, “METHODS OF TREATING CARTILAGE DISORDERS THROUGH INHIBITION OF CLK AND DYRK” (SAMUMED, LLC, priority 2019, published 2023).
